# Laboratory results from PubChem BioAssay AID1996.
# Settings: buffer; pH 7.4; 200.0 µM
row,solubility kinetic [µg/mL],Compound
1,> 48.9,COc1cc([N+](=O)[O-])cc([N+](=O)[O-])c1NC(=O)N1CCOCC1
2,> 50.6,COCCCNC(=O)C(CC(N)=O)NC(=O)OCc1ccccc1 (stereo unspecified)
3,> 50.4,Cc1cnc([N+](=O)[O-])n1CCOC(=O)NC(=O)c1ccc(F)cc1
4,32.4,CCOc1ccc2c(c1)ncn2Cc1ccccc1
5,< 0.7,COc1ccc(NC(=O)C2C(c3ccccc3)C2(Cl)Cl)cc1 (stereo unspecified)
6,> 48.1,O=C1CCc2cc(S(=O)(=O)Nc3ccccc3F)ccc2N1
7,22.8,Cc1ccc(OCCCCN2CCc3ccccc3C2)cc1.Cl
8,35.2,CCOc1ccc2nc(SCC(=O)NCc3ccc(S(N)(=O)=O)cc3)[nH]c2c1
9,< 0.7,CCOc1ccc2cc(S(=O)(=O)N3CCCCC3)ccc2c1
10,22.8,CC(C(=O)NCC1CCCCC1)N(C)Cc1cccc(Cl)c1 (stereo unspecified)
11,> 70.4,CC(=O)Oc1cc(C(=O)OCC(=O)N2CCc3ccccc3C2)cc(OC(C)=O)c1OC(C)=O
12,> 34.7,NC(=S)Nc1ccccc1Br
13,> 38.6,C=CCc1ccccc1Oc1cc(OC)nc(N)n1
14,4.5,CCNc1c(NC(=O)c2cccs2)c(=O)oc2ccccc12
15,36.9,CCOc1ccc(NC(=O)Nc2ccon2)cc1
16,> 41.7,O=C(COC(=O)c1ccc(O)cc1)Nc1nccs1
17,> 51.4,COc1cccc(CC2(CO)CCN(S(=O)(=O)N(C)C)CC2)c1
18,24.5,O=C(CN1CCN(c2ccc(F)cc2)CC1)Nc1nccs1
19,29.9,Cl.NCCC(=O)N1c2ccccc2Sc2ccccc21
20,> 37.5,S=C(NCc1ccc2c(c1)OCO2)NC1CC1
21,6.1,O=C(Cc1c(Cl)cccc1Cl)Nc1ccncc1Cl
22,> 48.1,O=C(COC(=O)COc1ccccc1)Nc1cccnc1Cl

row,solubility kinetic [µg/mL],Compound
1,48.6,CCN(CC)c1ccc(C(=O)c2cnc(/N=C/N(C)C)s2)cc1
2,10.1,c1ccc(-c2nc3ccccn3c2-c2ccccc2)cc1
3,1.3,CCOc1ccc(NC(=O)c2nsc(Cl)c2Cl)cc1
4,33.4,CCN1C(=O)CSC1=Nc1ccc(OC)cc1
5,> 44.3,COc1cccc(OC)c1C(=O)OCC(=O)NCC(C)C
6,> 49.9,CCOC(=O)C1CCN(CCC(=O)Nc2cc(C)cc(C)c2)CC1
7,> 46.2,O=C1C2C3CC(C2C(=O)N1c1cccc(Cl)c1)[C@H](O)C3O (stereo partly specified)
8,< 0.3,COc1ccc(CNC(=O)c2cc3c(=O)[nH]c4ccccc4c3n2C)cc1
9,> 39.5,O=[N+]([O-])c1ccccc1S(=O)(=O)c1ccccc1
10,> 45.9,Cn1c(=O)[nH]c(NCCc2ccc(O)cc2)c([N+](=O)[O-])c1=O
11,> 25.1,Cc1cccnc1NC(N)=S
12,0.6,CCc1ccccc1NC(=O)NC(C)c1ccc2c(c1)OCO2 (stereo unspecified)
13,1.3,O=C(COc1ccc([N+](=O)[O-])cc1)Nc1ccccc1C(=O)NC1CC1
14,> 44.1,Cc1cc(=O)oc2c(CN3CCCC3)c(O)c(Cl)cc12
15,> 39.2,COc1cccc(C(=O)NCc2ccco2)c1OC
16,5.6,O=C(COC(=O)/C=C/c1cccc(F)c1)NC1CCCCCC1
17,> 50.8,CCN(Cc1ccccc1)C(=O)CC(=O)N(CC)Cc1ccccc1
18,8.1,Cc1ccccc1CN(C)C(C)C(=O)Nc1ccccc1F (stereo unspecified)
19,16.1,COCCN(C(=S)Nc1c(C)cccc1C)C(C)c1cccs1 (stereo unspecified)
20,3,S=C(NCc1ccccc1)Nc1nccs1
21,3.5,CC(=O)c1c[nH]c(C(=O)NCc2ccccc2Cl)c1
22,< 0.4,CC(=O)c1sc(NC(=O)CCCOc2ccccc2C)nc1C

row,solubility kinetic [µg/mL],Compound
1,32.2,COc1ccc(C2c3ccsc3CCN2C(C)=O)cc1 (stereo unspecified)
2,< 0.2,COc1ccc(N2CCN(c3cc(C)c4cccc(C)c4n3)CC2)cc1
3,32.4,Cc1ccc(-n2c(SCC(=O)NCC3CCCO3)nc3ccccc3c2=O)cc1 (stereo unspecified)
4,> 41.3,CN(C)CCNC(=O)C(=O)C1C(=O)Nc2ccccc21 (stereo unspecified)
5,> 40.7,CCNc1nc(SCC(=O)OC)nc(N(C)C)n1
6,6.3,O=C(c1cccc([N+](=O)[O-])c1)c1ccc2c(c1)C(=O)NC2=O
7,11.6,Cn1c(N)c(C(=O)COC(=O)/C=C/c2ccccc2)c(=O)n(C)c1=O
8,48.5,CCc1nc2ccccc2c(C(=O)OCC(=O)NC2CCCC2)c1C
9,> 44.9,Cc1cc(O)c(CN(C)C)c2c1C(=O)/C(=C/c1ccco1)O2
10,8.2,CCOc1ccccc1NC(=O)CCCc1ccc(OC)c(C)c1
11,27.7,C=CCNC(=S)N1CCc2c([nH]c3ccccc23)C1C (stereo unspecified)
12,4.4,CCCCOc1ccc(C(=O)OCC(=O)c2c(N)n(C)c(=O)n(C)c2=O)cc1
13,6.3,Cc1ccc(NC(=O)CC(=O)Nc2ccc(C)cc2C)c(C)c1
14,> 33.5,Cc1csc2c(N(C)CCO)ncnc12
15,4.8,CCOCCCNC(=O)c1cc2c(=O)n(CC)c3ccccc3c2s1
16,1.8,COC(=O)c1c(NC(=O)c2ccccc2)sc(C(N)=O)c1C
17,36.4,COc1ccc(C(CNC(=O)c2cc3c(s2)CCCC3)N2CCOCC2)cc1 (stereo unspecified)
18,> 63.7,Cc1ccc(C(=O)OCC(=O)N2CCCCCC2)cc1S(=O)(=O)N1CCOCC1
19,< 0.4,COc1ccc(-c2cc(C(=O)Nc3ccc(OC)c(OC)c3)no2)cc1
20,12.2,CCC(=O)c1ccc(OCC(=O)Nc2ccc3c(c2)OCCO3)cc1
21,3.8,COc1ccc(C(=O)NCC2(c3ccccc3)CCCC2)c(OC)c1
22,12.4,Cc1ccc(NC(=O)COC(=O)Cc2ccc(Br)cc2)cc1S(=O)(=O)N1CCOCC1

row,solubility kinetic [µg/mL],Compound
1,> 38,O=C(O)Cn1c(-c2ccccn2)nc2ccccc21
2,> 52.4,O=C(C(c1ccccc1)c1ccccc1)N1CC[C@@]2(O)CCCC[C@H]2C1
3,< 0.2,C=CCn1c(=O)c(C(=O)Nc2cc(C)ccn2)c(O)c2ccccc21
4,13,OC(C#CCN1CCCCC1)(c1ccccc1)c1ccccc1
5,> 41,COc1ccc(OC)c(NC(=O)Nc2cccnc2)c1
6,48.2,CCCc1cc(=O)[nH]c(SCC(=O)NCCC2=CCCCC2)n1
7,30.6,CCOC(=O)CSc1nc(C)c2cccc(C)c2n1
8,28.6,CCC(=O)Nc1ccc(NCc2ccc(-c3ccccc3)cc2)cc1
9,> 37.2,CC(C)NCC(O)c1ccc(O)c(O)c1.Cl (stereo unspecified)
10,4.5,COCCNC(=O)c1cc2c(s1)-c1ccc(Cl)cc1SC2
11,12.4,CN(C)c1nc(F)c(F)c(S(=O)(=O)c2ccccc2)c1F
12,22.8,COc1ccc(C2=NOC(C(=O)Nc3cccc(O)c3)C2)cc1 (stereo unspecified)
13,> 49.4,COCC(=O)N1CCCC(C(=O)c2ccc(C(F)(F)F)cc2)C1 (stereo unspecified)
14,41.6,O=C(COC(=O)CCSc1ccccc1)Nc1ccccc1
15,> 47.8,CC(=O)Nc1ccc(NC(=O)COC(=O)C2CCCCC2)cc1
16,> 49.8,CC(=O)Nc1ccc(NS(=O)(=O)c2cccc3nonc23)cc1
17,> 47.9,CCn1c(SCC(=O)NC(C)(C)C)nnc1-c1ccncc1
18,0.4,O=C(Nc1ccc(Cl)cc1)Nc1ccc2c(c1)OCO2
19,9,COc1ccc(CC(=O)OCC(=O)Nc2ccc(Cl)cc2C)cc1

row,Compound,solubility kinetic [µg/mL]
1,Cc1ccccc1OP(N)(=O)Oc1ccccc1C,> 41.6
